Patent US10174035B2, “6-morpholinyl-2-pyrazolyl-9H-purine derivatives and their use as PI3K inhibitors” (Daiichi Sankyo Company, Limited, priority 2015, dated 2019)

Test system: IFN-γ release in mouse splenocytes
Test: Phytohaemagglutinin (PHA)-induced interferon (IFN)-gamma release in mouse splenocytes
Parameters: species or system C57BL/6 mouse
Conditions: Splenocyte, PHA (10 μg/ml) for 48 hours, IFN-γ by ELISA, read-out: Cell Based IC50
Protocol: Effect of compounds on mitogen-induced IFN-γ release in mouse splenocytes was used to evaluate their potency in cell-based assay system [Blood (2010) 115: 2203-2213; Current Protocols in Immunology (2004) 3.12.1-3.12.20].
Mouse splenocytes were obtained from the spleen of a C57BL/6 mouse and plated at a density of 0.25 million cells/well in a 96 well tissue culture plate. The effect of the compounds to inhibit IFN-γ release was evaluated by treating the splenocytes with various concentrations of the test compounds followed by stimulation with PHA (10 μg/ml) for 48 hours. The IFN-γ release in the cell culture supernatant was quantified by ELISA as per the manufacturer's protocol (BD Biosciences, #555138).

Going from `Cn1cc(-c2nc(N3CCOCC3)c3nc(C(=O)N4CCN(C(C)(C)C(N)=O)CC4)[nH]c3n2)cn1` [compound 10, 2-Methyl-2-(4-{[2-(1-methyl-1H-pyrazol-4-yl)-6-(morpholin-4-yl)-9H-purin-8-yl]carbonyl}piperazin-1-yl)propanamide] to `Cn1cc(-c2cc(N3CCOCC3)c3nc(C(=O)NCCCN4CCCC4=O)[nH]c3n2)cn1` [compound 116, 5-(1-Methyl-1H-pyrazol-4-yl)-7-(morpholin-4-yl)-N-[3-(2-oxopyrrolidin-1-yl)propyl]-3H-imidazo[4,5-b]pyridine-2-carboxamide], the IC50 falls from 270 nM to 72 nM (3.8-fold).

Target: recombinant PI3K δ enzyme (Homo sapiens (Human), UniProt O00329)
Sequence (O00329 whole entry, species assumed): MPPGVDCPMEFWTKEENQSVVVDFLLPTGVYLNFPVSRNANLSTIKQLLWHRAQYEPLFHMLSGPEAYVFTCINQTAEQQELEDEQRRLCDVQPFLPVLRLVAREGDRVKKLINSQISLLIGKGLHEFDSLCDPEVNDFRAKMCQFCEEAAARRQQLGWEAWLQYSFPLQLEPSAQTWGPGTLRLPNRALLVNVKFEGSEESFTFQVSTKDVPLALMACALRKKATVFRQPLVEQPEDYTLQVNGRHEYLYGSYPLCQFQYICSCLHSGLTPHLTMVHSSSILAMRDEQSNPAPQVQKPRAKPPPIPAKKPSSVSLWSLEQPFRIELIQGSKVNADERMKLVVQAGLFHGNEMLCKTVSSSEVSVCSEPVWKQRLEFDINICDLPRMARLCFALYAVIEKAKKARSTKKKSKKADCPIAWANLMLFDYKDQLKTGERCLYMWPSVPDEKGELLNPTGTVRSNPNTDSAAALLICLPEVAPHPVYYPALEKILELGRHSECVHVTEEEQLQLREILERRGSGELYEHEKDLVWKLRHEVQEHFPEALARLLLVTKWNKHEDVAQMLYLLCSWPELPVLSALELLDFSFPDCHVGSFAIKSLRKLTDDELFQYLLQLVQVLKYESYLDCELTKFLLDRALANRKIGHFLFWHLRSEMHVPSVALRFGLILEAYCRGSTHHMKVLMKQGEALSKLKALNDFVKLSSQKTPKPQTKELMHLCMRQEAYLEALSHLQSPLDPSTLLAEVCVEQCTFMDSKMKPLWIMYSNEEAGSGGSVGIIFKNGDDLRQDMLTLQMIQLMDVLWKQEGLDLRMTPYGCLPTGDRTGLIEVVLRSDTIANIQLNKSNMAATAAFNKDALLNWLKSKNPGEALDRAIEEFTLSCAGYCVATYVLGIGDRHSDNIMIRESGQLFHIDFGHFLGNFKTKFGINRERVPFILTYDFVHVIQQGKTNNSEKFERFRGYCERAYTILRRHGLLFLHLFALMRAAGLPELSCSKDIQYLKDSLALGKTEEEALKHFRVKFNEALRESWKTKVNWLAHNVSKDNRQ
Sequence (P27986 whole entry partner, species assumed): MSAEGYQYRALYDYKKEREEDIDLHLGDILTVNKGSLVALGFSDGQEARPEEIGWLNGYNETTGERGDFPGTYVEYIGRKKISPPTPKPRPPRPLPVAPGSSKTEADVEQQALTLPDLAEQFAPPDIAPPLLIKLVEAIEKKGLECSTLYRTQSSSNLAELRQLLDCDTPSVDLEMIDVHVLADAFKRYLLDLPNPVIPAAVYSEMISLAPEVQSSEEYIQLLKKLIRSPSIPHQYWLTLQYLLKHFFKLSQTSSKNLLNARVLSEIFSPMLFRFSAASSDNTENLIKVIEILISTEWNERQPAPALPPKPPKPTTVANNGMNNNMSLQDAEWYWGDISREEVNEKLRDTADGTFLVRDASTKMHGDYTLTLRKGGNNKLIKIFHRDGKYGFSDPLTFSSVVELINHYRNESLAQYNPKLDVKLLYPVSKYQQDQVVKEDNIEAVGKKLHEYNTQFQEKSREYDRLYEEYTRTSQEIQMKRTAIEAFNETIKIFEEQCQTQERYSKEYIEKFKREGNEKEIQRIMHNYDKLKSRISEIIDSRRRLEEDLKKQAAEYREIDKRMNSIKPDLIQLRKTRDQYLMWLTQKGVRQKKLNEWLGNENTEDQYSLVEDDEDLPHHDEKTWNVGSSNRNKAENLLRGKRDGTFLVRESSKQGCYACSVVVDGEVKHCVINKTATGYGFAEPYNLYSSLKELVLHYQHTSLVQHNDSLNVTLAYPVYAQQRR
Test: In vitro enzyme assay (Kinase-Glo luminescent kinase assay), PI3Kδ
Assay type: biochemical
Conditions: not given
How it was run: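 Each recombinant human PI3K isoform at 2.29 μg/mL with 60 μM PIP2 and 10 μM ATP in HEPES pH 7.4, NaCl, CHAPS, MgCl2, DTT, 2 hours at room temperature. Remaining ATP read by Kinase-Glo luminescence relative to no-enzyme blanks.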

Going from `C[C@@H]1CN(C2CN(C(=O)c3nc4c(N5CCOCC5)c(F)c(-c5cnn(C)c5)nc4[nH]3)C2)C[C@H](C)O1` [compound 127, {3-[(2R,6S)-2,6-dimethylmorpholin-4-yl]azetidin-1-yl}[6-fluoro-5-(1-methyl-1H-pyrazol-4-yl)-7-(morpholin-4-yl)-3H-imidazo[4,5-b]pyridin-2-yl]methanone] to `CN(C(=O)c1nc2c(N3CCOCC3)nc(-c3cnn(C)c3)nc2[nH]1)C1CCN(C2COC2)CC1` [compound 132, N-Methyl-2-(1-methyl-1H-pyrazol-4-yl)-6-(morpholin-4-yl)-N-[1-(oxetan-3-yl)piperidin-4-yl]-9H-purine-8-carboxamide], the IC50 rises from 36 nM to 240 nM (6.7-fold). The first is the more potent here.

Compared with `O=C(c1nc2c(N3CCOCC3)cc(-c3cn[nH]c3)nc2[nH]1)N1CCC(N2CCOCC2)CC1` [compound 133, [4-(Morpholin-4-yl)piperidin-1-yl][7-(morpholin-4-yl)-5-(1H-pyrazol-4-yl)-3H-imidazo[4,5-b]pyridin-2-yl]methanone], `O=C(c1nc2c(N3CCOCC3)cc(-c3c[nH]nc3C(F)(F)F)nc2[nH]1)N1CCC(N2CCOCC2)CC1` [compound 134, [4-(Morpholin-4-yl)piperidin-1-yl]{7-(morpholin-4-yl)-5-[3-(trifluoromethyl)-1H-pyrazol-4-yl]-3H-imidazo[4,5-b]pyridin-2-yl}methanone] is 6.3-fold lower in IC50: 19 nM for the first, 3 nM for the second. The second is the more potent here.

`Cn1cc(-c2cc(N3CCOCC3)c3nc(C(=O)N4CCN(C5CCOCC5)CC4)[nH]c3n2)cn1` [compound 135, [5-(1-Methyl-1H-pyrazol-4-yl)-7-(morpholin-4-yl)-3H-imidazo[4,5-b]pyridin-2-yl][4-(tetrahydro-2H-pyran-4-yl)piperazin-1-yl]methanone] showed an IC50 of 19 nM.
